Results taken from PubChem BioAssay AID328 (DTP/NCI, 2004).
Several values for one entry are separate records, joined by “and”; a condition that tells them apart may be missing. Identical values can stand only once. Toxic doses and inconclusive results are not listed.

Tested on: BDF1 mice, P388 leukemia ip, median survival T/C
Test: NCI In Vivo Anticancer Drug Screen. Data for tumor model P388 Leukemia (intraperitoneal) in B6D2F1 (BDF1) mice
Conditions: endpoint: median survival time, higher = longer survival
Outline: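 Compound-treated tumour-bearing mice were compared with vehicle-treated controls. Survival was recorded, and the value is the treated-group measurement divided by the control-group measurement (T/C).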

[1] = dose: 100.0 mg/kg/injection, schedule: Q01DX009 (ip), vehicle: other
[2] = dose: 200.0 mg/kg/injection, schedule: Q01DX009 (ip), vehicle: other
[3] = dose: 100.0 mg/kg/injection, schedule: Q01DX009 (ip), vehicle: saline with Tween-80
[4] = dose: 200.0 mg/kg/injection, schedule: Q01DX009 (ip), vehicle: saline with Tween-80
[5] = dose: 400.0 mg/kg/injection, schedule: Q01DX009 (ip), vehicle: saline with Tween-80
[6] = dose: 100.0 mg/kg/injection, schedule: Q04DX003 (ip), vehicle: Klucel (hydroxypropylcellulose) (HPC)
[7] = dose: 200.0 mg/kg/injection, schedule: Q04DX003 (ip), vehicle: Klucel (hydroxypropylcellulose) (HPC)
[8] = dose: 100.0 mg/kg/injection, schedule: Q04DX003 (ip), vehicle: saline with Tween-80
[9] = dose: 25.0 mg/kg/injection, schedule: Q01DX009 (ip), vehicle: water
[10] = dose: 50.0 mg/kg/injection, schedule: Q01DX009 (ip), vehicle: saline with Tween-80
[11] = dose: 200.0 mg/kg/injection, schedule: Q04DX003 (ip), vehicle: saline with Tween-80
[12] = dose: 400.0 mg/kg/injection, schedule: Q04DX003 (ip), vehicle: saline with Tween-80

`Cc1ccc(CNc2ccc(C)c(Cl)c2)cc1` was tested, and the T/C [1] was 104 % of control, the T/C [2] was 113 % of control and the T/C (dose: 400.0 mg/kg/injection, schedule: Q01DX009 (ip), vehicle: other) was 118 % of control.

In the case of `CC(CCc1cccc2ccccc12)(C(=O)O)C(=O)O`, the T/C (dose: 100.0 mg/kg/injection, schedule: Q04DX003 (ip), vehicle: saline sonified) was 100 % of control and the T/C (dose: 200.0 mg/kg/injection, schedule: Q04DX003 (ip), vehicle: saline sonified) was 91 % of control.

With `COc1ccc(/C=N/n2c(=O)[nH]nc(C)c2=O)c(OC)c1OC` the T/C [3] was 100 % of control, the T/C [4] was 122 % of control and the T/C [5] was 95 % of control.

`COc1cc(OC)cc(C(N)=O)c1` was tested, and the T/C (dose: 50.0 mg/kg/injection, schedule: Q04DX003 (ip), vehicle: Klucel (hydroxypropylcellulose) (HPC)) was 100 % of control, the T/C [6] was 95 % of control and the T/C [7] was 100 % of control.

In the case of `O=[N+]([O-])c1cc([N+](=O)[O-])c(Br)cc1Cl`, the T/C (dose: 5.0 mg/kg/injection, schedule: Q01DX009 (ip), vehicle: Klucel (hydroxypropylcellulose) (HPC)) was 101 % of control, the T/C (dose: 10.0 mg/kg/injection, schedule: Q01DX009 (ip), vehicle: Klucel (hydroxypropylcellulose) (HPC)) was 110 % of control and the T/C (dose: 20.0 mg/kg/injection, schedule: Q01DX009 (ip), vehicle: Klucel (hydroxypropylcellulose) (HPC)) was 112 % of control.

`CCCN=C(N)c1ccc(N=C(N)c2ccc(N=C(N)c3ccc(C(N)=NCCC)cc3)cc2)cc1` was tested, and the T/C (dose: 10.0 mg/kg/injection, schedule: Q01DX009 (ip), vehicle: saline) was 154 % of control and the T/C (dose: 15.0 mg/kg/injection, schedule: Q01DX009 (ip), vehicle: saline) was 190 % of control.

In the case of `c1ccc(-n2nc3c(c2OCCN2CCCC2)CCCc2ccccc2-3)cc1`, the T/C (dose: 66.0 mg/kg/injection, schedule: Q04DX003 (ip), vehicle: saline with Tween-80) was 108 % of control and the T/C [8] was 104 % of control and 116 % of control.

`CCOC(=O)C1CC(=O)c2ccccc2C1` (configuration not stated) was tested, and the T/C (dose: 12.5 mg/kg/injection, schedule: Q01DX009 (ip), vehicle: other) was 87 % of control, the T/C [1] was 96 % of control and the T/C [2] was 110 % of control.

With `COC(=O)CCC(=O)/C=C1/Nc2ccccc2C1=O` the T/C (dose: 50.0 mg/kg/injection, schedule: Q04DX003 (ip), vehicle: saline) was 90 % of control, the T/C (dose: 100.0 mg/kg/injection, schedule: Q04DX003 (ip), vehicle: saline) was 110 % of control and the T/C (dose: 200.0 mg/kg/injection, schedule: Q04DX003 (ip), vehicle: saline) was 120 % of control.

With `COc1cccc2c1C(=O)c1c(O)c3c(c(O)c1C2=O)C[C@@](O)(/C(C)=N\O)C[C@@H]3OC1CC(N)C(O)C(C)O1` (some centres not stated) the T/C (dose: 1.56 mg/kg/injection, schedule: Q01DX009 (ip), vehicle: water) was 112 % of control, the T/C (dose: 3.12 mg/kg/injection, schedule: Q01DX009 (ip), vehicle: water) was 105 % of control and the T/C (dose: 6.25 mg/kg/injection, schedule: Q01DX009 (ip), vehicle: water) was 161 % of control. For the same molecule, the T/C (dose: 12.5 mg/kg/injection, schedule: Q01DX009 (ip), vehicle: water) was 210 % of control and the T/C [9] was 103 % of control.

With `O=C(O)c1ccc([N+](=O)[O-])s1` the T/C [10] was 90 % of control, the T/C [3] was 95 % of control and the T/C [8] was 110 % of control. For the same molecule, the T/C [11] was 100 % of control.

For `CC(C)COC(=O)c1cc(O)c(O)c(O)c1`, the T/C (dose: 25.0 mg/kg/injection, schedule: Q01DX009 (ip), vehicle: saline with Tween-80) was 95 % of control, the T/C [10] was 91 % of control and the T/C [3] was 112 % of control. For the same molecule, the T/C [8] was 105 % of control, the T/C [4] was 103 % of control and the T/C [11] was 115 % of control. For the same molecule, the T/C [5] was 103 % of control and the T/C [12] was 115 % of control.

With `COC(=O)c1sccc1C=O` the T/C [6] was 96 % of control, the T/C [7] was 96 % of control and the T/C (dose: 400.0 mg/kg/injection, schedule: Q04DX003 (ip), vehicle: Klucel (hydroxypropylcellulose) (HPC)) was 92 % of control.

With `O=c1[nH]cc(I)cc1I` the T/C [11] was 100 % of control and the T/C [12] was 100 % of control.

For `O=C(Nc1ccc(Cc2ccc(NC(=O)Nc3nc4ccccc4s3)cc2)cc1)Nc1nc2ccccc2s1`, the T/C [10] was 94 % of control, the T/C [3] was 89 % of control and the T/C [4] was 100 % of control.

For `CCOC(=O)/C(Cc1cnc2ccccc2n1)=N\O`, the T/C [8] was 95 % of control, the T/C [11] was 100 % of control and the T/C [12] was 100 % of control.

With `CC(=O)Nc1cccc(Cl)c1C` the T/C (dose: 8.25 mg/kg/injection, schedule: Q01DX009 (ip), vehicle: saline with Tween-80) was 100 % of control, the T/C (dose: 12.4 mg/kg/injection, schedule: Q01DX009 (ip), vehicle: saline with Tween-80) was 104 % of control and the T/C (dose: 18.7 mg/kg/injection, schedule: Q01DX009 (ip), vehicle: saline with Tween-80) was 100 % of control. The T/C (dose: 28.2 mg/kg/injection, schedule: Q01DX009 (ip), vehicle: saline with Tween-80) was 100 % of control, the T/C (dose: 50.0 mg/kg/injection, schedule: Q01DX009 (ip), vehicle: Klucel (hydroxypropylcellulose) (HPC)) was 100 % of control and the T/C [10] was 100 % of control. The T/C (dose: 100.0 mg/kg/injection, schedule: Q01DX009 (ip), vehicle: Klucel (hydroxypropylcellulose) (HPC)) was 100 % of control, the T/C [8] was 95 % of control and the T/C (dose: 200.0 mg/kg/injection, schedule: Q01DX009 (ip), vehicle: Klucel (hydroxypropylcellulose) (HPC)) was 86 % of control. The T/C [11] was 100 % of control and the T/C [12] was 100 % of control.

For `COc1ccc(Cc2ccc(O)cc2)cc1`, the T/C (dose: 100.0 mg/kg/injection, schedule: Q04DX003 (ip), vehicle: other) was 100 % of control, the T/C (dose: 200.0 mg/kg/injection, schedule: Q04DX003 (ip), vehicle: other) was 119 % of control and the T/C (dose: 400.0 mg/kg/injection, schedule: Q04DX003 (ip), vehicle: other) was 119 % of control.

`O=C(NCCCl)NC1C(O)OC(CO)C(O)C1O` (configuration not stated) was tested, and the T/C [9] was 109 % of control, the T/C (dose: 50.0 mg/kg/injection, schedule: Q01DX009 (ip), vehicle: water) was 120 % of control and the T/C (dose: 50.0 mg/kg/injection, schedule: Q04DX003 (ip), vehicle: water) was 101 % of control. The T/C (dose: 100.0 mg/kg/injection, schedule: Q01DX009 (ip), vehicle: water) was 92 % of control, the T/C (dose: 100.0 mg/kg/injection, schedule: Q04DX003 (ip), vehicle: water) was 86 % of control and the T/C (dose: 200.0 mg/kg/injection, schedule: Q01DX009 (ip), vehicle: water) was 91 % of control. The T/C (dose: 200.0 mg/kg/injection, schedule: Q04DX003 (ip), vehicle: water) was 109 % of control, the T/C (dose: 400.0 mg/kg/injection, schedule: Q01DX009 (ip), vehicle: water) was 94 % of control and the T/C (dose: 400.0 mg/kg/injection, schedule: Q04DX003 (ip), vehicle: water) was 101 % of control.

For `Cc1ccc(C(=O)C2CC2)cc1C`, the T/C (dose: 33.0 mg/kg/injection, schedule: Q01DX009 (ip), vehicle: saline with Tween-80) was 96 % of control, the T/C [10] was 103 % of control and the T/C (dose: 50.0 mg/kg/injection, schedule: Q04DX003 (ip), vehicle: saline with Tween-80) was 104 % of control. The T/C (dose: 75.0 mg/kg/injection, schedule: Q01DX009 (ip), vehicle: saline with Tween-80) was 111 % of control, the T/C [8] was 112 % of control and the T/C [4] was 120 % of control. The T/C [11] was 112 % of control.
